What was measured:
Format in all cases: cell-based
D54 cells [1] = experiment: D54 viability by trypan blue staining immediately after incubation in media or DEP buffer; details: for viability in the DEP buffer: 6-hour incubation
Experimental: (A) Schematic describes experimental paradigm to test D54 viability after incubation in cell culture media or DEP buffer. Adherent D54 cells were dissociated then resuspended in media or DEP buffer and incubated on ice or at room temperature (RT). Cell viability was tested immediately after incubation by trypan blue. Equivalent numbers of cells were plated per condition and adherent cells observed after 1-2 days by phase contrast microscopy to assess cell recovery. (B) Cell viability after 6-hour incubation remained high for all conditions. Viability of D54 cells in DEP buffer may be slightly lower than that of cells in media. N=1. (C) Phase-contrast images of D54 cells stained with trypan blue after 6-hour incubation show high cell viability and increased clustering of cells incubated in media at RT. (D) Phase contrast images of adherent D54 cells one day after 6-hour incubation in media or DEP buffer. Cells incubated in media at RT show the best recovery, indicated by cell number and cell morphology. (E) Phase contrast images of adherent D54 cells one day after 0-6 hour incubation in media or DEP buffer. Cell recovery decreases with increasing incubation time in DEP buffer.
FIG. 2A-D presents optimization of buffer conditions for DEP-based sorting of GBM cells. (A) Viability of D54 cells immediately after 6-hour RT incubation in regular growth media, DEP buffer, or DEP buffer supplemented with 5 μM ROCKi was measured by trypan blue staining. […] (B) After 6-hour incubation in media or buffers, D54 cells were plated in normal growth conditions and the number of cells measured after 2 days by XTT assay. […] Acutely isolated cells (Media control, 0 h) served as a control. (D) D54 cells were plated after 6-hour incubation in buffers and after 1 day were exposed to TMZ to assess TMZ resistance. TMZ IC50 is shown as fold change relative to media control, 0 h, and no difference in TMZ resistance was detected across samples. Error bars show SD. […]
(A) Viability of D54 cells immediately after 6-hour incubation in regular growth media, DEP buffer, or DEP buffer supplemented with 1, 5, or 10 μM ROCKi was measured by trypan blue staining. […]
(§1) DEP buffer (DB): 8.5% w/v sucrose, 0.3% w/v glucose, 0.725% RPMI. […] (B) Cells were plated after incubation and the confluency (% culture surface area covered by cells) of adherent cells measured 1 day later using ImageJ. […]
(§2) Assessing the viability of D54 cells in a DEP buffer used for sorting mouse and human neural stem and progenitor cells. […] Further, the effect of temperature of the buffer (ice or room temperature) on cell viability was also evaluated. […] After the 6-hour buffer incubation, the cells were plated under normal growth conditions and assessed by phase contrast imaging 1-2 days later to assess cell survival and growth. […]

D54 cells [2] = experiment: XTT assay of cell numbers after plating and growth for 2 days; details: 5 μM ROCKi in DEP buffer vs DEP buffer without ROCKi, 6-hour incubation
Experimental: (§3) FIG. 2A-D presents optimization of buffer conditions for DEP-based sorting of GBM cells. (A) Viability of D54 cells immediately after 6-hour RT incubation in regular growth media, DEP buffer, or DEP buffer supplemented with 5 μM ROCKi was measured by trypan blue staining. […] (B) After 6-hour incubation in media or buffers, D54 cells were plated in normal growth conditions and the number of cells measured after 2 days by XTT assay. […] Acutely isolated cells (Media control, 0 h) served as a control. (D) D54 cells were plated after 6-hour incubation in buffers and after 1 day were exposed to TMZ to assess TMZ resistance. TMZ IC50 is shown as fold change relative to media control, 0 h, and no difference in TMZ resistance was detected across samples. Error bars show SD. N≥3, one-way ANOVA, Tukey post hoc for multiple comparisons, *p<0.05, **p<0.01, ***p<0.001, ****p<0.0001.
D54 cell viability studies conducted with a modified DEP buffer that included ROCKi. ROCK inhibitor (ROCKi) was included in the DEP buffer at concentrations ranging from 1-10 μM. […] Addition of 5 μM ROCKi to the DEP buffer improved D54 acute viability, as assessed by trypan blue staining, and led to greater than 90% viable cells (see FIG. 2A). An XTT assay was used to measure cell numbers after plating and growth for 2 days.

D54 cells [3] = experiment: TMZ resistance (TMZ IC50 fold change) of cells plated after buffer incubation; details: 5 μM ROCKi in DEP buffer; cells plated in normal growth medium without ROCKi
Experimental: as §3
(A) Viability of D54 cells immediately after 6-hour incubation in regular growth media, DEP buffer, or DEP buffer supplemented with 1, 5, or 10 μM ROCKi was measured by trypan blue staining. Acutely isolated cells (Media control, 0 h) served as a control. […] (C) There was no significant difference in the diameters of D54 cells in any of the conditions. (D) There was no significant difference in TMZ resistance as measured by fold change in IC50 relative to acutely isolated cells (Media control, 0 h). Error bars show SD. […]

D54 cells [4] = experiment: Recovery of adherent cells after buffer incubation and plating (phase contrast imaging, confluency by ImageJ); details: 5 μM ROCKi in DEP buffer, 6 hours incubation, among DEP buffers, N=1
Experimental: (A) Schematic describes experimental paradigm to test D54 viability after incubation in cell culture media or DEP buffer. Adherent D54 cells were dissociated then resuspended in media or DEP buffer and incubated on ice or at room temperature (RT). Cell viability was tested immediately after incubation by trypan blue. Equivalent numbers of cells were plated per condition and adherent cells observed after 1-2 days by phase contrast microscopy to assess cell recovery. (B) Cell viability after 6-hour incubation remained high for all conditions. Viability of D54 cells in DEP buffer may be slightly lower than that of cells in media. N=1. […]
as §1, §2

C[C@@H](N)[C@H]1CC[C@H](C(=O)Nc2ccncc2)CC1 [ROCKi, Y27632]
viability in the DEP buffer (D54 cells [1]; 1 μM ROCKi in DEP buffer): improved viability | viable cells (acute viability, trypan blue) (D54 cells [1]; 5 μM ROCKi in DEP buffer, 6-hour RT incubation): greater than 90% | viability in the DEP buffer (D54 cells [1]; 5 μM ROCKi in DEP buffer): improved viability | best concentration for D54 cell viability (D54 cells [1]; ROCKi in DEP buffer at 1-10 μM): 5 µM | cell numbers after plating and growth for 2 days (XTT) (D54 cells [2]): significantly increased cell numbers | TMZ resistance (fold change in TMZ IC50) (D54 cells [3]): did not alter TMZ resistance | confluency of adherent cells 1 day after plating (D54 cells [4]): the most confluency

Source: patent US20240033737A1, “DEVICES AND METHODS FOR CONTINUOUS DIELECTROPHORESIS CELL SORTING TO ISOLATE DIFFERENT POPULATIONS OF CELLS, AND APPLICATIONS THEREOF” (The Regents of the University of California, priority 2022, published 2024)
